Data from patent publication US10336792B2, “Antimicrobial peptide dendrimers” (priority 2014, dated 2019).
Converted amounts (≈) assume the structure as drawn. Positions of bridges follow the written chain, without caps; N, C: chain ends. Non-standard residues stand in square brackets, D forms with d. Residues, ends and D or L forms follow the SMILES beside them. Groups on a side chain read outwards from the residue. Chains are numbered I, II in the order given. *: point of attachment. Lauroyl = CCCCCCCCCCCC(=O)*; Dab = NCC[C@H](N)C(=O)O; Dap = NC[C@H](N)C(=O)O; Hexanoyl = CCCCCC(=O)*

Key:
Assay type in all cases: cell-based
[1] = test system: Bacillus subtilis (strain BR151); details: strain BR151
How it was run: (§1)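 Broth microdilution MIC in LB; overnight cultures diluted to OD600 0.001 and mixed 1:1 with ⅔-serially diluted samples (stock 1 mg mL^−1 in H2O), 37° C for 18-24 h. MTT (0.1%) added; MIC read by eye as lowest concentration inhibiting visible growth (yellow).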

[2] = test system: Escherichia coli (strain DH5α); details: DH5α
How it was run: as §1

[3] = test system: Pseudomonas aeruginosa (strain PA01); experiment: microbe, parasite or virus in culture; details: strain
How it was run: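 P. aeruginosa PAO1 grown overnight in LB, diluted to OD600 0.001 and mixed with ⅔-step peptide dilutions, then incubated at 37 °C for 18–24 h. After MTT staining, the lowest concentration with no visible growth was read by eye as the MIC.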

SMILES | MIC B. subtilis BR151 [1] [µg/mL] | MIC E. coli DH5α [2] [µg/mL] | MIC P. aeruginosa PAO1 [3] [µg/mL]
CC(C)C[C@H](NC(=O)[C@H](CCCCN)NC(=O)[C@H](CCCCNC(=O)[C@H](CC(C)C)NC(=O)[C@H](CCCCN)NC(=O)[C@H](CCCCNC(=O)[C@H](CC(C)C)NC(=O)[C@H](CCCCN)NC(=O)CSC[C@H](NC(=O)[C@H](CC(C)C)NC(=O)[C@H](CCCCN)NC(=O)[C@H](CCCCNC(=O)[C@H](CC(C)C)NC(=O)[C@@H](N)CCCCN)NC(=O)[C@H](CC(C)C)NC(=O)[C@@H](N)CCCCN)C(N)=O)NC(=O)[C@H](CC(C)C)NC(=O)[C@H](CCCCN)NC(=O)CSC[C@H](NC(=O)[C@H](CC(C)C)NC(=O)[C@H](CCCCN)NC(=O)[C@H](CCCCNC(=O)[C@H](CC(C)C)NC(=O)[C@@H](N)CCCCN)NC(=O)[C@H](CC(C)C)NC(=O)[C@@H](N)CCCCN)C(N)=O)NC(=O)[C@H](CC(C)C)NC(=O)[C@H](CCCCN)NC(=O)[C@H](CCCCNC(=O)[C@H](CC(C)C)NC(=O)[C@H](CCCCN)NC(=O)CSC[C@H](NC(=O)[C@H](CC(C)C)NC(=O)[C@H](CCCCN)NC(=O)[C@H](CCCCNC(=O)[C@H](CC(C)C)NC(=O)[C@@H](N)CCCCN)NC(=O)[C@H](CC(C)C)NC(=O)[C@@H](N)CCCCN)C(N)=O)NC(=O)[C@H](CC(C)C)NC(=O)[C@H](CCCCN)NC(=O)CSC[C@H](NC(=O)[C@H](CC(C)C)NC(=O)[C@H](CCCCN)NC(=O)[C@H](CCCCNC(=O)[C@H](CC(C)C)NC(=O)[C@@H](N)CCCCN)NC(=O)[C@H](CC(C)C)NC(=O)[C@@H](N)CCCCN)C(N)=O)C(N)=O [CCS-20, (KL)8(KKLCxKL)4(KKL)2KKL] | 10 (≈ 1.63 µM) | 4 (≈ 0.651 µM) | 3 (≈ 0.489 µM)
CC(C)C[C@H](NC(=O)[C@H](CCN)NC(=O)[C@H](CCCCNC(=O)[C@H](CC(C)C)NC(=O)[C@H](CCN)NC(=O)[C@H](CCCCNC(=O)[C@H](CC(C)C)NC(=O)[C@H](CCN)NC(=O)[C@H](CCCCNC(=O)[C@H](CC(C)C)NC(=O)[C@@H](N)CCN)NC(=O)[C@H](CC(C)C)NC(=O)[C@@H](N)CCN)NC(=O)[C@H](CC(C)C)NC(=O)[C@H](CCN)NC(=O)[C@H](CCCCNC(=O)[C@H](CC(C)C)NC(=O)[C@@H](N)CCN)NC(=O)[C@H](CC(C)C)NC(=O)[C@@H](N)CCN)NC(=O)[C@H](CC(C)C)NC(=O)[C@H](CCN)NC(=O)[C@H](CCCCNC(=O)[C@H](CC(C)C)NC(=O)[C@H](CCN)NC(=O)[C@H](CCCCNC(=O)[C@H](CC(C)C)NC(=O)[C@@H](N)CCN)NC(=O)[C@H](CC(C)C)NC(=O)[C@@H](N)CCN)NC(=O)[C@H](CC(C)C)NC(=O)[C@H](CCN)NC(=O)[C@H](CCCCNC(=O)[C@H](CC(C)C)NC(=O)[C@@H](N)CCN)NC(=O)[C@H](CC(C)C)NC(=O)[C@@H](N)CCN)C(N)=O [MSt-200, (DabL)8(KDabL)4(KDabL)2(KDabL)] (I: H-[Dab]LK([Leu-Dab])[Dab]LK[Dab]LK[Dab]L-NH2 / II: H-[Dab]LK([Leu-Dab])[Dab]LK[Dab]L / III: H-[Dab]LK([Leu-Dab])[Dab]L / IV: H-[Dab]LK([Leu-Dab])[Dab]L; amide I:6-IV:C, I:9-II:C, II:6-III:C; N-terminus assumed) | 2 (≈ 0.486 µM) | 2 (≈ 0.486 µM) | 3 (≈ 0.729 µM)
CC(C)C[C@H](NC(=O)[C@H](CCCNC(=N)N)NC(=O)[C@H](CCCCNC(=O)[C@H](CC(C)C)NC(=O)[C@@H](N)CCCNC(=N)N)NC(=O)[C@H](CC(C)C)NC(=O)[C@@H](N)CCCNC(=N)N)C(=O)NCCCC[C@H](NC(=O)[C@H](CC(C)C)NC(=O)[C@H](CCCNC(=N)N)NC(=O)[C@H](CCCCNC(=O)[C@H](CC(C)C)NC(=O)[C@@H](N)CCCNC(=N)N)NC(=O)[C@H](CC(C)C)NC(=O)[C@@H](N)CCCNC(=N)N)C(=O)N[C@@H](CCCNC(=N)N)C(=O)N[C@@H](CC(C)C)C(=O)N[C@@H](CSSC[C@H](NC(=O)[C@H](CC(C)C)NC(=O)[C@H](CCCNC(=N)N)NC(=O)[C@H](CCCCNC(=O)[C@H](CC(C)C)NC(=O)[C@H](CCCNC(=N)N)NC(=O)[C@H](CCCCNC(=O)[C@H](CC(C)C)NC(=O)[C@@H](N)CCCNC(=N)N)NC(=O)[C@H](CC(C)C)NC(=O)[C@@H](N)CCCNC(=N)N)NC(=O)[C@H](CC(C)C)NC(=O)[C@H](CCCNC(=N)N)NC(=O)[C@H](CCCCNC(=O)[C@H](CC(C)C)NC(=O)[C@@H](N)CCCNC(=N)N)NC(=O)[C@H](CC(C)C)NC(=O)[C@@H](N)CCCNC(=N)N)C(N)=O)C(N)=O [CCS-18 dimer, ((RL)4(KRL)2KRLC)2] (I: H-RLK([Leu-Arg])RLKRLC-NH2 / II: H-RLK([Leu-Arg])RLKRLC-NH2 / III: H-RLK([Leu-Arg])RL / IV: H-RLK([Leu-Arg])RL; amide I:6-III:C, II:6-IV:C; disulfide I:9-II:9; N-terminus assumed) | 9 (≈ 1.88 µM) | 13 (≈ 2.72 µM) | 9 (≈ 1.88 µM)
CCCCCC(=O)N[C@@H](CCCCN)C(=O)N[C@@H](CC(C)C)C(=O)NCCCC[C@H](NC(=O)[C@H](CC(C)C)NC(=O)[C@H](CCCCN)NC(=O)CCCCC)C(=O)N[C@@H](CCCCN)C(=O)N[C@@H](CC(C)C)C(=O)NCCCC[C@H](NC(=O)[C@H](CC(C)C)NC(=O)[C@H](CCCCN)NC(=O)[C@H](CCCCNC(=O)[C@H](CC(C)C)NC(=O)[C@H](CCCCN)NC(=O)CCCCC)NC(=O)[C@H](CC(C)C)NC(=O)[C@H](CCCCN)NC(=O)CCCCC)C(=O)N[C@@H](CCCCN)C(=O)N[C@@H](CC(C)C)C(N)=O [MSt-290, (C6KL)4(KKL)2(KKL)] (I: Hexanoyl-KLK([Leu-Lys-Hexanoyl])KLKKL-NH2 / II: Hexanoyl-KLK([Leu-Lys-Hexanoyl])KL; amide I:6-II:C) | 1 (≈ 0.403 µM) | 1 (≈ 0.403 µM) | 2 (≈ 0.805 µM)
NCCCC[C@H](NC(=O)[C@H](CCCCNC(=O)[C@H](Cc1ccccc1)NC(=O)[C@H](CCCCN)NC(=O)[C@H](CCCCNC(=O)[C@H](Cc1ccccc1)NC(=O)[C@H](CCCCN)NC(=O)[C@H](CCCCNC(=O)[C@H](Cc1ccccc1)NC(=O)[C@@H](N)CCCCN)NC(=O)[C@H](Cc1ccccc1)NC(=O)[C@@H](N)CCCCN)NC(=O)[C@H](Cc1ccccc1)NC(=O)[C@H](CCCCN)NC(=O)[C@H](CCCCNC(=O)[C@H](Cc1ccccc1)NC(=O)[C@@H](N)CCCCN)NC(=O)[C@H](Cc1ccccc1)NC(=O)[C@@H](N)CCCCN)NC(=O)[C@H](Cc1ccccc1)NC(=O)[C@H](CCCCN)NC(=O)[C@H](CCCCNC(=O)[C@H](Cc1ccccc1)NC(=O)[C@H](CCCCN)NC(=O)[C@H](CCCCNC(=O)[C@H](Cc1ccccc1)NC(=O)[C@@H](N)CCCCN)NC(=O)[C@H](Cc1ccccc1)NC(=O)[C@@H](N)CCCCN)NC(=O)[C@H](Cc1ccccc1)NC(=O)[C@H](CCCCN)NC(=O)[C@H](CCCCNC(=O)[C@H](Cc1ccccc1)NC(=O)[C@@H](N)CCCCN)NC(=O)[C@H](Cc1ccccc1)NC(=O)[C@@H](N)CCCCN)C(=O)N[C@@H](Cc1ccccc1)C(N)=O [MSt-174, (KF)8(KKF)4(KKF)2(KKF)] (I: H-KFK([Phe-Lys])KFKKFKKF-NH2 / II: H-KFK([Phe-Lys])KFKKF / III: H-KFK([Phe-Lys])KF / IV: H-KFK([Phe-Lys])KF; amide I:6-IV:C, I:9-II:C, II:6-III:C) | 2 (≈ 0.396 µM) | 7 (≈ 1.39 µM) | 6 (≈ 1.19 µM)
CC(C)C[C@H](NC(=O)[C@H](CCCNC(=N)N)NC(=O)[C@H](CNC(=O)[C@H](CC(C)C)NC(=O)[C@H](CCCNC(=N)N)NC(=O)[C@H](CNC(=O)[C@H](CC(C)C)NC(=O)[C@@H](N)CCCNC(=N)N)NC(=O)[C@H](CC(C)C)NC(=O)[C@@H](N)CCCNC(=N)N)NC(=O)[C@H](CC(C)C)NC(=O)[C@H](CCCNC(=N)N)NC(=O)[C@H](CNC(=O)[C@H](CC(C)C)NC(=O)[C@@H](N)CCCNC(=N)N)NC(=O)[C@H](CC(C)C)NC(=O)[C@@H](N)CCCNC(=N)N)C(N)=O [MSt-139, (RL)4(BRL)2(BRL)] (I: H-RL[Dap]([Leu-Arg])RL[Dap]RL-NH2 / II: H-RL[Dap]([Leu-Arg])RL; amide I:6-II:C) | 16 (≈ 7.4 µM) | 17 (≈ 7.87 µM) | 2 (≈ 0.926 µM)
CCCCCCCCCCCC(=O)NCCCC[C@H](NC(=O)[C@H](CC(C)C)NC(=O)[C@H](CCCCN)NC(=O)[C@H](CCCCNC(=O)[C@H](CC(C)C)NC(=O)[C@H](CCCCN)NC(=O)[C@H](CCCCNC(=O)[C@H](CC(C)C)NC(=O)[C@H](CCCCN)NC(=O)[C@H](CCCCNC(=O)[C@H](CC(C)C)NC(=O)[C@@H](N)CCCCN)NC(=O)[C@H](CC(C)C)NC(=O)[C@@H](N)CCCCN)NC(=O)[C@H](CC(C)C)NC(=O)[C@H](CCCCN)NC(=O)[C@H](CCCCNC(=O)[C@H](CC(C)C)NC(=O)[C@@H](N)CCCCN)NC(=O)[C@H](CC(C)C)NC(=O)[C@@H](N)CCCCN)NC(=O)[C@H](CC(C)C)NC(=O)[C@H](CCCCN)NC(=O)[C@H](CCCCNC(=O)[C@H](CC(C)C)NC(=O)[C@H](CCCCN)NC(=O)[C@H](CCCCNC(=O)[C@H](CC(C)C)NC(=O)[C@@H](N)CCCCN)NC(=O)[C@H](CC(C)C)NC(=O)[C@@H](N)CCCCN)NC(=O)[C@H](CC(C)C)NC(=O)[C@H](CCCCN)NC(=O)[C@H](CCCCNC(=O)[C@H](CC(C)C)NC(=O)[C@@H](N)CCCCN)NC(=O)[C@H](CC(C)C)NC(=O)[C@@H](N)CCCCN)C(N)=O [MSt-267, (KL)8(KKL)4(KKL)2(KKLKC12)] (I: H-KLK([Leu-Lys])KLKKLKKLK(Lauroyl)-NH2 / II: H-KLK([Leu-Lys])KLKKL / III: H-KLK([Leu-Lys])KL / IV: H-KLK([Leu-Lys])KL; amide I:6-IV:C, I:9-II:C, II:6-III:C) | 4 (≈ 0.826 µM) | 1 (≈ 0.206 µM) | 1 (≈ 0.206 µM)
